Where two headings read alike, the source gives them in different places.
Assays:
[1] = system: PC-3 xenograft bearing mice; conditions: PET/CT, PC-3 tumor-bearing mice
Experimental: Animal experiments were approved by the Animal Ethics Committee of the University of British Columbia.
Mice were sedated and scanned (Siemens Inveon microPET/CT) with body temperature maintained by heating pad. […] PET data were acquired in list mode, reconstructed using 3-dimensional ordered-subsets expectation maximization (2 iterations) followed by a fast maximum a priori algorithm (18 iterations) with CT-based attenuation correction. Images were analyzed using the Inveon Research Workplace software (Siemens Healthineers).

[2] = measured at 5 min and 15 min p.i., mice, radio-HPLC
Text: ^68Ga-ProBOMB2 (5.9±0.3 MBq) was intravenously injected into four male NSG mice. After a 5-min and 15-min uptake period, two mice were sedated/euthanized at each timepoint, and blood was collected. The plasma was extracted from whole blood with acetonitrile, vortexed, and the supernatant separated.

[3] = Biodistribution in PC-3 tumor-bearing NSG mice (Example 2); assay type: in vivo; conditions: male, NSG (NOD.Cg-Prkdc^scid Il2rg^tm1Wjl/SzJ), mouse, iv, total radioactivity; for tissue uptake at 2 h / tissue to tissue ratio at 2 h: 120 MIN p.i.
Experimental: (§1) […]. The mice were sacrificed by CO2 inhalation at 1 h, and 2 h p.i. Blood was collected by cardiac puncture. Organs/tissues were harvested, rinsed with PBS, blotted dry, and weighed. The activity in tissues was assayed by gamma counter and expressed as the percentage injected dose per gram of tissue (% ID/g).

[4] = system: PC-3 xenograft bearing mice; experiment: as above; assay type: in vivo
Experimental: as §1

## CC(C)C[C@@H](CN1CCC[C@H]1C(N)=O)NC(=O)[C@H](Cc1c[nH]cn1)NC(=O)CNC(=O)[C@@H](NC(=O)[C@H](C)NC(=O)[C@H](Cc1c[nH]c2ccccc12)NC(=O)[C@H](CCC(N)=O)NC(=O)[C@@H](Cc1ccccc1)NC(=O)CN1CCC(NC(=O)CN2CCN(CC(=O)O)CCN(CC(=O)O)CCN(CC(=O)O)CC2)CC1)C(C)C [^68Ga-ProBOMB2, metal not drawn]
[1]
  Clearance pathway: primarily cleared through the renal pathway
[2]
  Intact in plasma: 89%
[3]; PC-3 tumor, 60 MIN BLOCKED, co-injection of 100 μg of [D-Phe^6,Leu-NHEt^13,des-Met^14]Bombesin(6-14), read-out: Biodistribution PC3 TUMOR, Mean
  tissue uptake at 1 h: 3.77 %ID/g
[3]; PC-3 tumor, 60 MIN p.i., read-out: Biodistribution PC3 TUMOR, Mean
  tissue uptake at 1 h: 10.8 %ID/g
[3]; PC-3 tumor, read-out: Biodistribution PC3 TUMOR, Mean
  tissue uptake at 2 h: 8.79 %ID/g
[3]; adrenal glands, 60 MIN BLOCKED, co-injection of 100 μg of [D-Phe^6,Leu-NHEt^13,des-Met^14]Bombesin(6-14), read-out: Biodistribution ADRENAL GLANDS, Mean
  tissue uptake at 1 h: 0.32 %ID/g
[3]; adrenal glands, 60 MIN p.i., read-out: Biodistribution ADRENAL GLANDS, Mean
  tissue uptake at 1 h: 0.76 %ID/g
[3]; adrenal glands, read-out: Biodistribution ADRENAL GLANDS, Mean
  tissue uptake at 2 h: 0.47 %ID/g
[3]; bone, 60 MIN BLOCKED, co-injection of 100 μg of [D-Phe^6,Leu-NHEt^13,des-Met^14]Bombesin(6-14), read-out: Biodistribution BONE, Mean
  tissue uptake at 1 h: 0.13 %ID/g
[3]; bone, 60 MIN p.i., read-out: Biodistribution BONE, Mean
  tissue uptake at 1 h: 0.15 %ID/g
[3]; bone, read-out: Biodistribution BONE, Mean
  tissue uptake at 2 h: 0.06 %ID/g
[3]; brain, 60 MIN BLOCKED, co-injection of 100 μg of [D-Phe^6,Leu-NHEt^13,des-Met^14]Bombesin(6-14), read-out: Biodistribution BRAIN, Mean
  tissue uptake at 1 h: 0.02 %ID/g
[3]; brain, 60 MIN p.i., read-out: Biodistribution BRAIN, Mean
  tissue uptake at 1 h: 0.02 %ID/g
[3]; brain, read-out: Biodistribution BRAIN, Mean
  tissue uptake at 2 h: 0.01 %ID/g
[3]; fat, 60 MIN BLOCKED, co-injection of 100 μg of [D-Phe^6,Leu-NHEt^13,des-Met^14]Bombesin(6-14), read-out: Biodistribution FAT, Mean
  tissue uptake at 1 h: 0.08 %ID/g
[3]; fat, 60 MIN p.i., read-out: Biodistribution FAT, Mean
  tissue uptake at 1 h: 0.06 %ID/g
[3]; fat, read-out: Biodistribution FAT, Mean
  tissue uptake at 2 h: 0.02 %ID/g
[3]; heart, 60 MIN BLOCKED, co-injection of 100 μg of [D-Phe^6,Leu-NHEt^13,des-Met^14]Bombesin(6-14), read-out: Biodistribution HEART, Mean
  tissue uptake at 1 h: 0.16 %ID/g
[3]; heart, 60 MIN p.i., read-out: Biodistribution HEART, Mean
  tissue uptake at 1 h: 0.18 %ID/g
[3]; heart, read-out: Biodistribution HEART, Mean
  tissue uptake at 2 h: 0.05 %ID/g
[3]; intestine, 60 MIN BLOCKED, co-injection of 100 μg of [D-Phe^6,Leu-NHEt^13,des-Met^14]Bombesin(6-14), read-out: Biodistribution INTESTINE, Mean
  tissue uptake at 1 h: 0.34 %ID/g
[3]; intestine, 60 MIN p.i., read-out: Biodistribution INTESTINE, Mean
  tissue uptake at 1 h: 0.46 %ID/g
[3]; intestine, read-out: Biodistribution INTESTINE, Mean
  tissue uptake at 2 h: 0.19 %ID/g
[3]; kidney, 60 MIN BLOCKED, co-injection of 100 μg of [D-Phe^6,Leu-NHEt^13,des-Met^14]Bombesin(6-14), read-out: Biodistribution KIDNEY, Mean
  tissue uptake at 1 h: 2.22 %ID/g
[3]; kidney, 60 MIN p.i., read-out: Biodistribution KIDNEY, Mean
  tissue uptake at 1 h: 1.81 %ID/g
[3]; kidney, read-out: Biodistribution KIDNEY, Mean
  tissue uptake at 2 h: 1.27 %ID/g
[3]; liver, 60 MIN BLOCKED, co-injection of 100 μg of [D-Phe^6,Leu-NHEt^13,des-Met^14]Bombesin(6-14), read-out: Biodistribution LIVER, Mean
  tissue uptake at 1 h: 0.57 %ID/g
[3]; liver, 60 MIN p.i., read-out: Biodistribution LIVER, Mean
  tissue uptake at 1 h: 0.43 %ID/g
[3]; liver, read-out: Biodistribution LIVER, Mean
  tissue uptake at 2 h: 0.29 %ID/g
[3]; lungs, 60 MIN BLOCKED, co-injection of 100 μg of [D-Phe^6,Leu-NHEt^13,des-Met^14]Bombesin(6-14), read-out: Biodistribution LUNGS, Mean
  tissue uptake at 1 h: 0.41 %ID/g
[3]; lungs, 60 MIN p.i., read-out: Biodistribution LUNGS, Mean
  tissue uptake at 1 h: 0.39 %ID/g
[3]; lungs, read-out: Biodistribution LUNGS, Mean
  tissue uptake at 2 h: 0.13 %ID/g
[3]; muscle, 60 MIN BLOCKED, co-injection of 100 μg of [D-Phe^6,Leu-NHEt^13,des-Met^14]Bombesin(6-14), read-out: Biodistribution MUSCLE, Mean
  tissue uptake at 1 h: 0.09 %ID/g
[3]; muscle, 60 MIN p.i., read-out: Biodistribution MUSCLE, Mean
  tissue uptake at 1 h: 0.15 %ID/g
[3]; muscle, read-out: Biodistribution MUSCLE, Mean
  tissue uptake at 2 h: 0.03 %ID/g
[3]; pancreas, Biodistribution PANCREAS, Mean, 60 MIN BLOCKED, co-injection of 100 μg of [D-Phe^6,Leu-NHEt^13,des-Met^14]Bombesin(6-14), read-out: Biodistribution […], Mean
  tissue uptake at 1 h: 0.62 %ID/g
[3]; pancreas, Biodistribution PANCREAS, Mean, 60 MIN p.i., read-out: Biodistribution […], Mean
  tissue uptake at 1 h: 1.2 %ID/g
[3]; pancreas, Biodistribution PANCREAS, Mean, read-out: Biodistribution […], Mean
  tissue uptake at 2 h: 0.3 %ID/g
[3]; seminal, 60 MIN BLOCKED, co-injection of 100 μg of [D-Phe^6,Leu-NHEt^13,des-Met^14]Bombesin(6-14), read-out: Biodistribution SEMINAL, Mean
  tissue uptake at 1 h: 1.95 %ID/g
[3]; seminal, 60 MIN p.i., read-out: Biodistribution SEMINAL, Mean
  tissue uptake at 1 h: 2.44 %ID/g
[3]; seminal, read-out: Biodistribution SEMINAL, Mean
  tissue uptake at 2 h: 1.63 %ID/g
[3]; spleen, 60 MIN BLOCKED, co-injection of 100 μg of [D-Phe^6,Leu-NHEt^13,des-Met^14]Bombesin(6-14), read-out: Biodistribution SPLEEN, Mean
  tissue uptake at 1 h: 0.33 %ID/g
[3]; spleen, 60 MIN p.i., read-out: Biodistribution SPLEEN, Mean
  tissue uptake at 1 h: 0.27 %ID/g
[3]; spleen, read-out: Biodistribution SPLEEN, Mean
  tissue uptake at 2 h: 0.11 %ID/g
[3]; stomach, 60 MIN BLOCKED, co-injection of 100 μg of [D-Phe^6,Leu-NHEt^13,des-Met^14]Bombesin(6-14), read-out: Biodistribution STOMACH, Mean
  tissue uptake at 1 h: 0.07 %ID/g
[3]; stomach, 60 MIN p.i., read-out: Biodistribution STOMACH, Mean
  tissue uptake at 1 h: 0.19 %ID/g
[3]; stomach, read-out: Biodistribution STOMACH, Mean
  tissue uptake at 2 h: 0.06 %ID/g
[3]; testes, 60 MIN BLOCKED, co-injection of 100 μg of [D-Phe^6,Leu-NHEt^13,des-Met^14]Bombesin(6-14), read-out: Biodistribution TESTES, Mean
  tissue uptake at 1 h: 0.21 %ID/g
[3]; testes, 60 MIN p.i., read-out: Biodistribution TESTES, Mean
  tissue uptake at 1 h: 0.16 %ID/g
[3]; testes, read-out: Biodistribution TESTES, Mean
  tissue uptake at 2 h: 0.07 %ID/g
[3]; tumor/blood, 60 MIN p.i., read-out: TUMOR-TO-BLOOD ratio, Mean
  tissue to tissue ratio at 1 h: 22.2
[3]; tumor/blood, read-out: TUMOR-TO-BLOOD ratio, Mean
  tissue to tissue ratio at 2 h: 75.3
[3]; tumor/bone, 60 MIN BLOCKED, co-injection of 100 μg of [D-Phe^6,Leu-NHEt^13,des-Met^14]Bombesin(6-14), read-out: TUMOR-TO-BONE ratio, Mean
  tissue to tissue ratio at 1 h: 39.8
[3]; tumor/bone, 60 MIN p.i., read-out: TUMOR-TO-BONE ratio, Mean
  tissue to tissue ratio at 1 h: 89.9
[3]; tumor/bone, read-out: TUMOR-TO-BONE ratio, Mean
  tissue to tissue ratio at 2 h: 173
[3]; tumor/kidney, 60 MIN BLOCKED, co-injection of 100 μg of [D-Phe^6,Leu-NHEt^13,des-Met^14]Bombesin(6-14), read-out: TUMOR-TO-KIDNEY ratio, Mean
  tissue to tissue ratio at 1 h: 1.77
[3]; tumor/kidney, 60 MIN p.i., read-out: TUMOR-TO-KIDNEY ratio, Mean
  tissue to tissue ratio at 1 h: 6.03
[3]; tumor/kidney, read-out: TUMOR-TO-KIDNEY ratio, Mean
  tissue to tissue ratio at 2 h: 6.96
[3]; tumor/liver, 60 MIN BLOCKED, co-injection of 100 μg of [D-Phe^6,Leu-NHEt^13,des-Met^14]Bombesin(6-14), read-out: TUMOR-TO-LIVER ratio, Mean
  tissue to tissue ratio at 1 h: 7.33
[3]; tumor/liver, 60 MIN p.i., read-out: TUMOR-TO-LIVER ratio, Mean
  tissue to tissue ratio at 1 h: 26.2
[3]; tumor/liver, read-out: TUMOR-TO-LIVER ratio, Mean
  tissue to tissue ratio at 2 h: 35
[3]; tumor/muscle, 60 MIN BLOCKED, co-injection of 100 μg of [D-Phe^6,Leu-NHEt^13,des-Met^14]Bombesin(6-14), read-out: TUMOR-TO-MUSCLE ratio, Mean
  tissue to tissue ratio at 1 h: 44
[3]; tumor/muscle, 60 MIN p.i., read-out: TUMOR-TO-MUSCLE ratio, Mean
  tissue to tissue ratio at 1 h: 102
[3]; tumor/muscle, read-out: TUMOR-TO-MUSCLE ratio, Mean
  tissue to tissue ratio at 2 h: 411
[3]; tumor/pancreas, TUMOR-TO-PANCREAS ratio, Mean, 60 MIN BLOCKED, co-injection of 100 μg of [D-Phe^6,Leu-NHEt^13,des-Met^14]Bombesin(6-14), read-out: TUMOR-TO-[…] ratio, Mean
  tissue to tissue ratio at 1 h: 6.17
[3]; tumor/pancreas, TUMOR-TO-PANCREAS ratio, Mean, 60 MIN p.i., read-out: TUMOR-TO-[…] ratio, Mean
  tissue to tissue ratio at 1 h: 9.32
[3]; tumor/pancreas, TUMOR-TO-PANCREAS ratio, Mean, read-out: TUMOR-TO-[…] ratio, Mean
  tissue to tissue ratio at 2 h: 31.1
[3]; whole blood, 60 MIN BLOCKED, co-injection of 100 μg of [D-Phe^6,Leu-NHEt^13,des-Met^14]Bombesin(6-14), read-out: Biodistribution BLOOD, Mean
  tissue uptake at 1 h: 0.53 %ID/g
[3]; whole blood, 60 MIN p.i., read-out: Biodistribution BLOOD, Mean
  tissue uptake at 1 h: 0.49 %ID/g
[3]; whole blood, read-out: Biodistribution BLOOD, Mean
  tissue uptake at 2 h: 0.13 %ID/g
[4]; 60 MIN BLOCKED, co-injection of 100 μg of [D-Phe^6,Leu-NHEt^13,des-Met^14]Bombesin(6-14)
  TUMOR-TO-BLOOD ratio, Mean: 7.23
[4]; PC-3 tumors, 60 min p.i., 100 μg blocker
  Decrease of average uptake in tumors by co-injection of [D-Phe^6, Leu-NHEt^13, des-Met^14]Bombesin(6-14): 65%

— patent US20210402016A1, “RADIOLABELED BOMBESIN-DERIVED COMPOUNDS FOR IN VIVO IMAGING OF GASTRIN-RELEASING PEPTIDE RECEPTOR (GRPR) AND TREATMENT OF GRPR-RELATED DISORDERS” (Provincial Health Services Authority, priority 2018, published 2021)
